# Test results: PubChem BioAssay (NCI)
#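 Assay format: 96-well plates, 48-hour exposure. TGI denotes the concentration required for complete inhibition of growth.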
# How the values were obtained:
# Experiment in all cases: inhibition of tumour cell growth, NCI panel, 48 h
# SF-539 CNS = system: SF-539 CNS
# SF-268 CNS = system: SF-268 CNS
# HOP-62 NSCLC = system: HOP-62 NSCLC
# OVCAR-8 ovarian = system: OVCAR-8 ovarian
# HS 578T breast = system: HS 578T breast
# NCI-H226 lung = system: NCI-H226 lung
# SNB-19 CNS = system: SNB-19 CNS
# IGROV1 ovarian = system: IGROV1 ovarian
# MDA-N = system: MDA-N
# CCRF-CEM leukemia = system: CCRF-CEM leukemia
# OVCAR-3 ovarian = system: OVCAR-3 ovarian
# SF-295 CNS = system: SF-295 CNS
# LOX IMVI melanoma = system: LOX IMVI melanoma
# NCI-H23 lung = system: NCI-H23 lung
# BT-549 breast = system: BT-549 breast
# HCC-2998 colon = system: HCC-2998 colon
# MCF7 breast = system: MCF7 breast
Structure (SMILES),TGI (SF-539 CNS) [µM],TGI (SF-268 CNS) [µM],TGI (HOP-62 NSCLC) [µM],TGI (OVCAR-8 ovarian) [µM],TGI (HS 578T breast) [µM],TGI (NCI-H226 lung) [µM],TGI (SNB-19 CNS) [µM],TGI (IGROV1 ovarian) [µM],TGI (MDA-N) [µM],TGI (CCRF-CEM leukemia) [µM],TGI (OVCAR-3 ovarian) [µM],TGI (SF-295 CNS) [µM],TGI (LOX IMVI melanoma) [µM],TGI (NCI-H23 lung) [µM],TGI (BT-549 breast) [µM],TGI (HCC-2998 colon) [µM],TGI (MCF7 breast) [µM]
COc1cc(O)c2c(c1)OCC(Cc1ccc(O)cc1)C2=O (stereo not given),> 100,> 100,> 100,> 100,> 100,> 100,> 100,> 100,> 100,> 100,> 100,> 100,> 100,> 100,,,
O=C1NCCCNCCCNCCCNC(=O)c2cccc1n2,> 100,> 100,> 100,> 100,> 100,> 100,> 100,> 100,> 100,> 100,> 100,> 100,> 100,> 100,> 100,> 100,
CN1C2CCC1CC(CCNC(c1ccccc1)c1ccccc1)C2 (stereo not given),35.7,> 100,50.9,> 100,> 100,> 100,> 100,> 100,30.6,> 100,> 100,49,59.8,> 100,> 100,,
O=C1NC2OCC(O)C(O)C2O1 (stereo not given),> 100,> 100,> 100,> 100,,,> 100,> 100,,> 100,> 100,> 100,> 100,> 100,,> 100,
COc1cccc(/C=C2\C(=O)N(C(=O)c3ccc(NC(C)=O)cc3)N=C2C)c1,> 100,> 100,> 100,> 100,,> 100,> 100,,,> 100,> 100,> 100,> 100,> 100,,> 100,
O=C1O/C(=C(/Br)c2ccc(Cl)c(Cl)c2)c2ccccc21,> 10,> 10,> 10,> 10,> 10,> 10,> 10,> 10,> 10,> 10,> 10,> 10,> 10,> 10,,> 10,> 10
CCOC(=O)C1(C(=O)OCC)C[C@H](C)[C@](C)(O)C1,> 100,> 100,> 100,> 100,> 100,> 100,> 100,> 100,> 100,> 100,> 100,> 100,> 100,> 100,,,> 100
